Data: patent publication US7795203B2, “Method for topical treatment of eye disease and composition and device for said treatment” (priority 2002, dated 2010)
Where a SMILES comes first, the peptide text is derived from it.

Columns and labels:
[1] = Clinical study of 0.1% N-Acetyl-RGDS in patients with POAG and OH (IOP, tonography); type: in vivo, human; settings: 0.1% topically twice daily
From the text: Without intending to be bound by theory, the inventor currently believes that RGD-containing peptides, and/or their pharmacologically acceptable salts, are efficacious for the therapeutical and surgical treatment of primary open-angle glaucoma (POAG) and ocular hypertension (OH). […] The effect of 0.1% N-Acetyl-RGDS on outflow facility, as studied by tonography, was striking providing a significant increase to 26-33%. The cleansing activity of Acetyl-RGDS is accompanied by increase in trabecular outflow facility which is different from that of other drugs (pilocarpine) previously shown in patients with POAG and OH. The clinical significance and mechanism of IOP reduction by N-Acetyl-RGDS are related with the cleansing effect of N-Acetyl-RGDS on extracellular matrix proteins and plaque material in trabecular meshwork to reduce the outflow resistance in the eyes of patients with POAG and OH. It is believed N-Acetyl-RGDS is also suitable to treat secondary cataracts and vitreoproliferative disorders.

[2] = Pharmacokinetic studies: N-acetylcarnosine in blood plasma after topical administration to the eye; type: in vivo
Method: (§1) Yet another advantage of the present invention is that systemic absorption of N-acetylcarnosine and/or carnosine is increased through the microvessels of the conjunctival and lid mucosal tissues because the cellulose compound increases the time of persistence of N-acetylcarnosine in the conjunctival sac. More particularly, N-acetylcarnosine appears in blood plasma within 30 min of its topical administration to the eye with carboxymethylcellulose. The half time of decay of N-acetylcarnosine in plasma is about 150 min or more according to pharmacokinetic studies. […] Accordingly, once in blood plasma N-acetylcarnosine can act as a competititve saturating inhibitor of carnosinase, which is very helpful to protect L-carnosine from hydrolysis during concomitant oral administration of L-carnosine as an anti-aging therapy.

[3] = target: T1, carnosinase (Homo sapiens, UniProt Q96KN2); experiment: Hydrolysis with carnosinase; type: biochemical; settings: substrate of carnosinase similar to L-carnosine
T1 sequence (Q96KN2 27-507 limits assumed): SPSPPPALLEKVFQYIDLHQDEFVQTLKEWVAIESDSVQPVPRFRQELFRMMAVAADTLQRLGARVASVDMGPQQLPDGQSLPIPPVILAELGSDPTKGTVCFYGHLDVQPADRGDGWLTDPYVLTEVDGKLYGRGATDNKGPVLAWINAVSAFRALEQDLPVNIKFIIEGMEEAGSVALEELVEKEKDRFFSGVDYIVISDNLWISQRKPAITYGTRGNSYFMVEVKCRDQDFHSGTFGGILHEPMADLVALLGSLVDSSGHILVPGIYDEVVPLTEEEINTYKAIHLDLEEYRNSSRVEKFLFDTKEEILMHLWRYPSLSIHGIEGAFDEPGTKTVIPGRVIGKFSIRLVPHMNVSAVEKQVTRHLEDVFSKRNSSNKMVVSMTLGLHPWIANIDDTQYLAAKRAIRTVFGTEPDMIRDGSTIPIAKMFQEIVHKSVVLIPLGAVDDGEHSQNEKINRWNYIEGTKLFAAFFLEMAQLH
Method: as §1

Compound | tolerability [1] | half time of decay in plasma ([2]; according to pharmacokinetic studies) [min] | time to appearance in blood plasma ([2]; topical administration to the eye with carboxymethylcellulose) [min] | resistance to hydrolysis with carnosinase [3]
CC(=O)N[C@@H](CCCNC(=N)N)C(=O)NCC(=O)N[C@@H](CC(=O)O)C(=O)N[C@@H](CO)C(=O)O [N-Acetyl-RGDS, N-acetyl-Arg-Gly-Asp-Ser peptide] (Ac-RGDS-OH) | well tolerated | – | – | –
CC(=O)NCCC(=O)N[C@@H](Cc1c[nH]cn1)C(=O)O [N-acetylcarnosine] | – | ≥ 150 | ≤ 30 | highly resistant to hydrolysis with carnosinase
